Patent US8993547B2, “3-desoxy-2-methylene-19-nor-vitamin D analogs and their uses” (Wisconsin Alumni Research Foundation, priority 2011, dated 2015)
“Also recorded” adds a separate entry of the source.

Key:
[1] = system: Human promyelocytic leukemia (HL60) cells; assay: HL-60 cell differentiation (nitro blue tetrazolium reduction); type: cell-based; conditions: for EC50: HL60 cells, 4 days
Procedure: The study drugs were dissolved in ethanol and the concentrations determined using UV spectrophotometry. Serial dilutions were prepared so that a range of drug concentrations could be tested without changing the final concentration of ethanol (≦0.2%) present in the cell cultures.
Human promyelocytic leukemia (HL60) cells were grown in RPMI-1640 medium containing 10% fetal bovine serum. The cells were incubated at 37° C. in the presence of 5% CO2.
HL60 cells were plated at 1.2×10^5 cells/ml. Eighteen hours after plating, cells in duplicate were treated with drug. Four days later, the cells were harvested and a nitro blue tetrazolium reduction assay was performed (Collins et al., 1979; J. Exp. Med. 149:969-974). The percentage of differentiated cells was determined by counting a total of 200 cells and recording the number that contained intracellular black-blue formazan deposits. Verification of differentiation to monocytic cells was determined by measuring phagocytic activity (data not shown).

[2] = system: bone calcium mobilization; assay: Bone calcium mobilization (serum calcium) in vitamin D-deficient rats; type: in vivo, Sprague-Dawley rats; conditions: for bone calcium mobilization activity / serum calcium: vitamin D-deficient rats on low calcium diet (0.02%)
Procedure: (§1) Male, weanling Sprague-Dawley rats were placed on Diet 11 (Suda et al, J. Nutr. 100:1049, 1970) (0.47% Ca)+vitamins AEK for one week followed by Diet 11 (0.02% Ca)+vitamins AEK for 3 weeks. The rats were then switched to the same diet containing 0.47% Ca for one week followed by two weeks on the same diet containing 0.02% Ca. Dose administration began during the last week on 0.02% calcium diet. Four consecutive ip doses were given approximately 24 hours apart. Twenty-four hours after the last dose, blood was collected from the severed neck and the concentration of serum calcium determined by atomic absorption spectrometry as a measure of bone calcium mobilization. The first 10 cm of the intestine was also collected for intestinal calcium transport analysis using the everted gut sac method.

[3] = system: 24-hydroxylase (24Ohase) gene promoter in ROS 17/2.8 (bone) cells; assay: In vitro transcription assay, 24-hydroxylase gene promoter luciferase reporter; type: cell-based; conditions: for transcriptional activity in bone cells compared to 1α,25-dihydroxyvitamin D3: 24-hydroxylase gene; for EC50: ROS 17/2.8 cells, 16 hours after dosing, read-out: EC50, transcriptional activity in bone cells (24-hydroxylase gene)
Procedure: Transcription activity was measured in ROS 17/2.8 (bone) cells that were stably transfected with a 24-hydroxylase (24Ohase) gene promoter upstream of a luciferase reporter gene (Arbour et al., 1998). Cells were given a range of doses. Sixteen hours after dosing the cells were harvested and luciferase activities were measured using a luminometer. RLU=relative luciferase units.

[4] = system: intestinal calcium transport; assay: Intestinal calcium transport, everted gut sac method; type: in vivo, Sprague-Dawley rats; conditions: vitamin D-deficient rats
Procedure: as §1

[5] = biological target: T1, full-length recombinant rat vitamin D receptor (Rattus norvegicus, UniProt P13053); assay: Vitamin D receptor competitive binding with [3H]-1,25(OH)2D3; conditions: full-length recombinant rat VDR
T1 construct: Full-length recombinant rat receptor was expressed in E. coli; histidine tag (C); made in house; host or cells: E. coli BL21 (DE3) Codon Plus RIL
T1 sequence (P13053 1-423): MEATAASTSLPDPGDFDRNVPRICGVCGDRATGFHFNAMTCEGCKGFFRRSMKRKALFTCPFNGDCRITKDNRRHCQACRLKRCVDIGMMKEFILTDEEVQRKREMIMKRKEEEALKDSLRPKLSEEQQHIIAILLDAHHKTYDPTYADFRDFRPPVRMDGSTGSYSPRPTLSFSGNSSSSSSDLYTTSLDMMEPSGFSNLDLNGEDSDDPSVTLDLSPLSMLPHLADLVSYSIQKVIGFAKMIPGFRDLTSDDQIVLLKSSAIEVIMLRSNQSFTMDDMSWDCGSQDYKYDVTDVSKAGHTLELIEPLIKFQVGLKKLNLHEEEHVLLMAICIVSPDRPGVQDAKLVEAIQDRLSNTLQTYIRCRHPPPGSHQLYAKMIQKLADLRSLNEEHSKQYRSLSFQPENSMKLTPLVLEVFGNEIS
Procedure: Full-length recombinant rat receptor was expressed in E. coli BL21 (DE3) Codon Plus RIL cells and purified to homogeneity using two different column chromatography systems. The first system was a nickel affinity resin that utilizes the C-terminal histidine tag on this protein. The protein that was eluted from this resin was further purified using ion exchange chromatography (S-Sepharose Fast Flow). Aliquots of the purified protein were quick frozen in liquid nitrogen and stored at −80° C. until use. For use in binding assays, the protein was diluted in TEDK50 (50 mM Tris, 1.5 mM EDTA, pH7.4, 5 mM DTT, 150 mM KCl) with 0.1% Chaps detergent. The receptor protein and ligand concentration was optimized such that no more than 20% of the added radiolabeled ligand was bound to the receptor.
Radiolabeled and unlabeled ligands were added to 100 mcl of the diluted protein at a final ethanol concentration of ≦10%, mixed and incubated overnight on ice to reach binding equilibrium. The following day, 100 mcl of hydroxylapatite slurry (50%) was added to each tube and mixed at 10-minute intervals for 30 minutes. The hydroxylapaptite was collected by centrifugation and then washed three times with Tris-EDTA buffer (50 mM Tris, 1.5 mM EDTA, pH 7.4) containing 0.5% Titron X-100. After the final wash, the pellets were transferred to scintillation vials containing 4 ml of Biosafe II scintillation cocktail, mixed and placed in a scintillation counter. Total binding was determined from the tubes containing only radiolabeled ligand.

Row | SMILES | EC50 [1] | bone calcium mobilization activity / serum calcium [2] | EC50 ([1]; Homo sapiens, HL-60, 96 h) | transcriptional activity in bone cells compared to 1α,25-dihydroxyvitamin D3 [3] | EC50 [3] | potency in mobilization of bone calcium relative to native hormone at the same dose ([2]; 780 pmol/day for 4 consecutive days, rats on low calcium diet (0.02%)) | potency in releasing bone calcium stores relative to native hormone ([2]; vitamin D-deficient rats, times more potent than 1,25(OH)2D3) | intestinal calcium transport activity compared to 1,25(OH)2D3 [4] | binding affinity to vitamin D receptor compared to 1,25-(OH)2D3 [5] | potency on HL-60 cell differentiation compared to 1,25(OH)2D3 [1] | mobilization of bone calcium compared to native hormone at the same dose ([2]; 87 pmol/day for 4 consecutive days) | Ki ([5]; read-out: Ki, competition with [3H]-1,25(OH)2D3 for binding to vitamin D receptor)
1 | C=C1/C(=C\C=C2/CCC[C@]3(C)[C@@H]([C@H](C)CCCC(C)(C)O)CC[C@@H]23)C[C@@H](O)C[C@@H]1O [1α,25-dihydroxyvitamin D3, reference compound] | 2 nM | increased serum calcium levels at the dosages tested |  |  |  |  |  |  |  |  |  | 
2 | C=C1CC/C(=C/C=C2\CCC[C@]3(C)[C@@H]([C@@H](C)CCCC(C)(C)O)CC[C@@H]23)C[C@H]1O [3-desoxy-2MD, (20S)-3-desoxy-2-methylene-1α,25-dihydroxy-19-nor-vitamin D3] |  |  | 0.7 nM | about the same transcriptional activity | 0.3 nM | about 10 times | at least 10 times | about one half log less potent; also recorded: at least one half log less potent than 1,25(OH)2D3 | about the same affinity |  |  | 
3 | C=C1CC/C(=C/C=C2\CCC[C@]3(C)[C@@H]([C@H](C)CCCC(C)(C)O)CC[C@@H]23)C[C@H]1O [3D-MJ, (20R)-3-desoxy-2-methylene-1α,25-dihydroxy-19-nor-vitamin D3] |  | about the same potency as the native hormone | 1 nM | about the same transcriptional activity | 0.3 nM |  |  | about the same potency as 1,25(OH)2D3; also recorded: about as potent | about the same affinity | about the same potency as 1,25(OH)2D3 | only slightly less mobilization of bone calcium than the native hormone | 0.7 nM
